From patent US20230069590A1, “CONCENTRATED SODIUM VALPROATE FOR RAPID DELIVERY” (priority 2020, published 2023)
Where “and” joins values, the source holds several entries; their conditions need not be identical. Equal entries are not always repeated. Where two headings read alike, the source gives them in different places.

Columns and labels:
[1] = tested on: lethal model of polytrauma, HS and TBI; assay: Survival in lethal swine model of polytrauma, hemorrhage and TBI (Example 1); assay type: in vivo
Text: (§1) Bilateral 5-Fr 11-cm arterial catheters and an 8-Fr 11-cm central venous catheter (Super Sheath, Boston Scientific Corporation, Marlborough, Mass.) were placed by femoral cutdown for arterial pressure monitoring, controlled arterial hemorrhage and central venous normal saline (NS; 0.9% sodium chloride solution) administration. An open cystostomy tube was placed for urine output monitoring. The right external jugular vein was then accessed percutaneously under ultrasound guidance, and a pulmonary artery catheter was placed for monitoring of pulmonary artery pressure and cardiac output.
A 5 cm segment of the left rectus muscle was exposed and crushed using a Kelly clamp to create a soft tissue injury. Femur fracture and liver injury were performed as previously described (Ref. 20; incorporated by reference in its entirety). The mid-femur was exposed and fractured with a 22-gauge captive bolt gun (Ramset Mastershot, Glendale Heights, Ill.) fired point-blank on the femur. A reproducible grade V liver laceration was created with a liver crunch device placed 1 cm lateral to the porta and 7 cm posterior on the dome of the liver. After laceration the liver was allowed to bleed freely for 30 seconds. […] Laparotomy pads were weighed at the end of the experiment to confirm a consistent liver injury (500±50 mL hemorrhage volume).
(§2) The animal was then flipped prone in preparation for TBI and additional hemorrhage. TBI was made by controlled cortical impact (Ref. 21; incorporated by reference in its entirety). A skin flap was raised on the anterior skull to expose the bregma, followed by a 21 mm burr hole on the right side next to the coronal and sagittal sutures to expose the dura. The computer controlled cortical impactor (University of Michigan Innovation Center, Ann Arbor, Mich.) was fired to produce a 10-mm depth injury. A 5-mm burr hole was made on the left for placement of the intracranial pressure (ICP) probe.
Concurrent with TBI, 40% estimated total blood volume was withdrawn over 20 minutes using a Masterflex pump (Cole-Palmer, Vernon Hills, Ill.). The initial 20% blood volume was removed over the first 7 minutes, followed by an additional 20% blood volume at a slower rate over the subsequent 13 minutes. […] Mean arterial pressure (MAP) was maintained between 30-35 mmHg by adjusting the inhaled isoflurane, pausing hemorrhage if MAP persisted <30 mm Hg and giving 50-100 mL fluid boluses of NS.
After completion of hemorrhage, a one-hour shock phase began. This one hour was designed to simulate medic response time from the initial injury. During the shock phase, MAP was again maintained between 30-35 mmHg in order to standardize the effect of hypotension on the injured brain.
(§3) Treatment groups are outlined in Table 1. […] In order to simulate prolonged field care (PFC) by a combat medic, three times the hemorrhage volume of NS was delivered centrally through femoral vein catheter over 1 hour using the Masterflex pump. […] To simulate delayed evacuation to definitive care after PFC, autologous packed red blood cells (pRBCs) were transfused 3 hours after the completion of shock phase at a rate of 25 mL/hr. Animals were then monitored for an additional 4 hours to simulate time in a critical care unit, after which animals were euthanized with Euthasol (sodium pentobarbital 100 mg/kg, Virbec, Fort Worth, Tex.) if the animal survived to the end of the experiment. Laboratory parameters were monitored, and electrolyte abnormalities (e.g. hyperkalemia and hypoglycemia) were corrected as needed.

[2] = tested on: lethal model of polytrauma, HS and TBI; assay: Hemodynamics (MAP, adverse hemodynamic effects) in polytrauma, HS and TBI model (Example 1)
Text: as §1, §3

[3] = tested on: lethal model of polytrauma, HS and TBI; assay: Serum AST and CPK in polytrauma, HS and TBI model (Example 1); assay type: in vivo, swine; conditions: for Serum aspartate aminotransferase (AST): 3 hours post-treatment
Experimental: as §3

[4] = tested on: TBI by controlled cortical impact; assay: Brain lesion size, TTC staining, controlled for time (Example 1); assay type: in vivo, swine; conditions: VPA 150 (150 mg/kg over 3 h); lesion volume divided by time from injury
Text: as §2

[5] = Plasma VPA levels and pharmacokinetics (Example 1); assay type: in vivo, swine; conditions: for Clearance / Vd: pig, in vivo, iv; for Vd: read-out: Volume of distribution (Vd); for concentration at 5 h / concentration at 3 h: swine, plasma, intravenous, plasma VPA level; for concentration at 5 h: 5 hours after VPA infusion start
Text: A separate group of sham animals underwent cannulation and line placement without infliction of polytrauma, hemorrhage or TBI for use in subsequent pharmacokinetic (PK) analysis.

[6] = Pharmacokinetic Analysis (TABLE 1 in Example 1); assay type: in vivo, swine
[7] = Serum VPA after IO versus IV infusion (Example 2); assay type: in vivo; conditions: swine, 150 mg/kg over 3 hours
Experimental: At the end of the shock phase, in order to simulate available resuscitative fluids available in a field care setting, all animals were resuscitated with normal saline via the femoral venous catheter with a standardized volume that was three times the hemorrhaged volume delivered over 1 hour. […] Placement of the needle was confirmed by aspiration of marrow and subsequent flush of 10 mL normal saline without extravasation. […] To simulate a delayed transfer to definitive care, 3 hours after the start of normal saline resuscitation, animals were transfused autologous packed red blood cells that were hemorrhaged earlier in the experiment. Animals were then monitored for another 4 hours to the predetermined end point. […] Arterial blood gases were drawn from the femoral arterial line serially throughout the experiment.
GraphPad Prism v8 was used to analyze data (GraphPad Software, San Diego, Calif.).

[8] = tested on: polytrauma, hemorrhage and TBI; assay: Survival after IO or IV VPA in polytrauma, hemorrhage and TBI (Example 2); assay type: in vivo, swine; conditions: 150 mg/kg over 3 hours
Experimental: Animals underwent placement of femoral venous and arterial lines, a pulmonary artery catheter, and open cystostomy for invasive monitoring, hemorrhage and resuscitation. […] The abdomen was then packed, and animal flipped prone in preparation for TBI and hemorrhage. A 12 mm depth TBI was inflicted using a controlled cortical impact device, and the animal was simultaneously hemorrhaged 40% of its estimated blood volume over 20 minutes. At the completion of hemorrhage, the animal was left unresuscitated and in shock for 1 hour to simulate medic response time.
At the end of the shock phase, in order to simulate available resuscitative fluids available in a field care setting, all animals were resuscitated with normal saline via the femoral venous catheter with a standardized volume that was three times the hemorrhaged volume delivered over 1 hour. Animals were randomized to receive either a VPA administered IO (TO group) or administered IV (IV group) or to a control group. […] Placement of the needle was confirmed by aspiration of marrow and subsequent flush of 10 mL normal saline without extravasation. […] Animals were then monitored for another 4 hours to the predetermined end point. […]

[9] = Further experiments: infusion of 150 mg/kg over 1 hour, hemodynamic effects; assay type: in vivo; conditions: 150 mg/kg delivered over 1 hour
[10] = healthy human subjects, 140 mg/kg given over one hour; cited from earlier work
[11] = tested on: non-lethal TBI and hemorrhagic shock; conditions: 150 mg/kg; cited from earlier work
lethal models of trauma = conditions: 300-450 mg/kg; cited from earlier work
histone acetylation = conditions: 150 mg/kg, at the end of a 3-hour VPA infusion; cited from earlier work
[12] = 100 mg/kg, VPA 100 (injured, 100 mg/kg over 3 h)
[13] = 150 mg/kg, VPA 150 (injured, 150 mg/kg over 3 h)
[14] = group mean of 5 VPA-treated animals
[15] = individual VPA-treated animals 1-5, dose and regimen not given

For `CCCC(CCC)C(=O)O` [VPA, valproic acid], the survival ([1]; 100 mg/kg over 2 hours (faster rate of infusion)) was “improved survival”, the “survival compared to NS resuscitation” value ([1]; 100 mg/kg over 3 hours) was “did not” and the “survival compared to NS resuscitation” value ([1]; 150 mg/kg over 3 hours) was “significantly improved survival”. For the same compound, the survival ([1]; VPA 100: 100 mg/kg IV over 3 hours with NS resuscitation) was 0%, the survival ([1]; VPA 100 over 2 h: 100 mg/kg IV over 2 hours with NS resuscitation) was 67% and the survival ([1]; VPA 150: 150 mg/kg IV over 3 hours with NS resuscitation, survival to end of experiment) was 83%. For the same compound, the adverse hemodynamic effects ([2]; 100 mg/kg over 2 hours) was “without causing any adverse hemodynamic effects”, the adverse hemodynamic effects ([2]; 150 mg/kg over 3 hours) was “without causing any adverse hemodynamic effects” and the “mean arterial pressure (MAP) after the treatment” value ([2]; VPA 150 (150 mg/kg over 3 hours) versus other groups) was “tended to have a higher MAP”. The “creatine phosphokinase (CPK), group mean” value ([3]; VPA 100 (100 mg/kg over 3 h)) was 1581±321, the “Serum aspartate aminotransferase (AST)” value ([3]; VPA 100 (100 mg/kg over 3 h)) was 95±29 and the “creatine phosphokinase (CPK), group mean” value ([3]; VPA 100 over 2 h) was 927±233. The “Serum aspartate aminotransferase (AST)” value ([3]; VPA 100 over 2 h) was 101±22, the “creatine phosphokinase (CPK), group mean” value ([3]; VPA 150 (150 mg/kg over 3 h)) was 2428±1314 and the “Serum aspartate aminotransferase (AST)” value ([3]; VPA 150 (150 mg/kg over 3 h)) was 177±95. For the same compound, the “brain lesion size controlled for time” value [4] was 4.1 mm^3/min, the Clearance ([5]; 100 mg/kg, 100 mg/kg over 2 h (injured)) was 91.7 mL/min and the Clearance [5, 12] was 68.3 mL/min. The Vd [5, 12] was 16.1 ± 3.3 L, the Vd ([5]; 150 mg/kg, Sham VPA (uninjured, 150 mg/kg over 3 h)) was 12.1 ± 6 L and the Clearance [5, 13] was 102 mL/min. For the same compound, the Vd [5, 13] was 24.2 ± 3.8 L, the concentration at 5 h ([5]; 100 mg/kg, VPA 100 over 2 h (injured)) was 74 µg/mL and the concentration at 3 h ([5]; 100 mg/kg, VPA 100 over 2 h (injured), three hours after start of infusion) was 115 µg/mL. The concentration at 3 h ([5]; 150 mg/kg, Sham VPA (uninjured, 150 mg/kg over 3 h), three hours after start of infusion (end of infusion)) was 291 µg/mL, the concentration at 5 h ([5]; 150 mg/kg, VPA 150 (injured)) was 114 µg/mL and the concentration at 3 h ([5]; 150 mg/kg, VPA 150 (injured, 150 mg/kg over 3 h), three hours after start of infusion (end of infusion)) was 175 µg/mL. For the same compound, the “Area Under Curve” value [6, 14] was 616 µg·h/mL, the “Maximum Concentration” value [6, 14] was 145 mg/L and the “Area Under Curve” value [6, 15] was 431.4 µg·h/mL and 827.6 µg·h/mL and 635.2 µg·h/mL and 521.1 µg·h/mL and 663.7 µg·h/mL. The Clearance [6, 15] was 17.4 L/h and 7.43 L/h and 9.44 L/h and 13.2 L/h and 10.9 L/h, the Half-life [6, 15] was 1.85 h and 1.65 h and 1.58 h and the “Maximum Concentration” value [6, 15] was 98.12 mg/L and 199.3 mg/L and 142.8 mg/L and 124.5 mg/L. The Clearance ([6]; pig, in vivo, 150 mg/kg, group mean of 5 VPA-treated animals, read-out: Clearance (converted)) was 11.2 L/h, the Half-life ([6]; pig, in vivo, 150 mg/kg, group mean of 5 VPA-treated animals, read-out: Half-life (converted)) was 1.7 h and the Half-life ([6]; pig, in vivo, 150 mg/kg, individual VPA-treated animals 1-5, dose and regimen not given, read-out: Half-life (converted)) was 1.81 h. The AUC ([7]; IV group) was 294 to 356 µg·h/mL, the AUC ([7]; other: intraosseous (IO needle in the left humeral head), IO group) was 301 to 470 µg·h/mL and the “survival to the end of the experiment” value ([8]; IO group) was 100%. For the same compound, the “survival to the end of the experiment” value ([8]; IV group) was 100%, the adverse hemodynamic effects [9] was “does not cause adverse hemodynamic effects” and the peak plasma level [10] was 1271 µg/mL. For the same compound, the “brain lesion size and neurologic recovery” value [11] was “attenuating brain lesion size and improving neurologic recovery”, the survival (lethal models of trauma) was “survival benefit” and the histone acetylation (histone acetylation) was “significant increase in histone acetylation”.
